Consider 17 molecules from PubChem BioAssay (NCI).

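Method: 48-hour compound exposure of cells in 96-well plates, five concentrations, linear interpolation of endpoints. GI50 = concentration required for 50% inhibition of growth. At the TGI there is no net growth.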 Bounds are passed on as bounds.

Among the test systems are LOX IMVI melanoma; HOP-62 NSCLC; UACC-257 melanoma; A498 renal; K-562 leukemia; HCC-2998 colon; EKVX NSCLC; RXF 393 renal; DU-145 prostate; BT-549 breast.
Test in all cases: DTP human tumour cell line panel, 48 h

Take `Cc1cn(C2C=CC(=O)C(C)O2)c(=O)[nH]c1=O` (centres undefined): the total growth inhibition concentration (TGI) was 26.6 µM in the experiment on LOX IMVI melanoma; 43.2 µM in the experiment on HOP-62 NSCLC; 27.8 µM with UACC-257 melanoma; above 100 µM in the experiment on A498 renal; 36.9 µM in the experiment with K-562 leukemia.
In the case of `COc1cc(NCC(C#N)C#N)ccc1N=Nc1ccc([N+](=O)[O-])cc1`, the TGI with LOX IMVI melanoma, in the experiment on HOP-62 NSCLC, with HCC-2998 colon, with EKVX NSCLC, in the experiment on RXF 393 renal and in the experiment with UACC-257 melanoma was above 100 µM throughout. Moreover, the concentration for total growth inhibition (TGI) in the experiment on A498 renal and in the experiment with K-562 leukemia was above 100 µM throughout.
With `Cn1cc2ccccc2c1-c1nc(F)nc(Oc2ccc3c(c2)CC[C@@H]2C3CC[C@]3(C)C(O)CCC23)n1` (some centres undefined), the concentration for total growth inhibition (TGI) in the experiment on LOX IMVI melanoma was 36.9 µM; in the experiment with HOP-62 NSCLC it was 33 µM; in the experiment with HCC-2998 colon, 36.4 µM; in the experiment with RXF 393 renal it was 72.3 µM; with UACC-257 melanoma, 36.3 µM; in the experiment with K-562 leukemia, above 100 µM.
Regarding `CSC(=S)N(C)NC(=O)c1cccc(C(=O)NN(C)C(=S)SC)n1`, the TGI with LOX IMVI melanoma is above 100 µM; in the experiment on HOP-62 NSCLC, 37.3 µM; in the experiment on EKVX NSCLC it was above 100 µM; in the experiment on RXF 393 renal, 74.4 µM; in the experiment on UACC-257 melanoma, 56.9 µM; in the experiment on A498 renal, above 100 µM. The molecule further yielded a TGI in the experiment on K-562 leukemia above 100 µM.
With `O=C(N/C(=C\c1ccc([N+](=O)[O-])cc1)c1nc2[nH]c(=S)[nH]c(=O)c2[nH]1)c1ccccc1`, the TGI in the experiment on HCC-2998 colon, with EKVX NSCLC, in the experiment on RXF 393 renal and with K-562 leukemia was above 100 µM in each case.
For the molecule `COc1cc(C2[C@H]3C(=O)N(c4ccc(Cc5ccc(N6C(=O)[C@@H]7ON(c8ccccc8)C(c8cc(OC)c(OC)c(OC)c8)[C@@H]7C6=O)cc5)cc4)C(=O)[C@H]3ON2c2ccccc2)cc(OC)c1OC` (some centres undefined), the total growth inhibition concentration (TGI) in the experiment with LOX IMVI melanoma, in the experiment with HOP-62 NSCLC, in the experiment on HCC-2998 colon, in the experiment with EKVX NSCLC, with RXF 393 renal and in the experiment with UACC-257 melanoma was above 100 µM in each case. In addition, the TGI in the experiment with A498 renal and in the experiment on K-562 leukemia was above 100 µM in each case.
As to `O=C(CCCn1ccnc1[N+](=O)[O-])NCCn1cnc([N+](=O)[O-])c1`, the TGI in the experiment on LOX IMVI melanoma, with HOP-62 NSCLC, in the experiment with HCC-2998 colon, in the experiment with DU-145 prostate, in the experiment with BT-549 breast and in the experiment on EKVX NSCLC was above 100 µM in each case. For the same molecule, the concentration for total growth inhibition (TGI) with UACC-257 melanoma and with K-562 leukemia was above 100 µM throughout.
With `COC1=NN2C(OC)(c3ccccc3)c3c(-c4ccccc4)sc(-c4ccccc4)c3C2(c2ccccc2)S1` (centres undefined), the total growth inhibition concentration (TGI) in the experiment on LOX IMVI melanoma was above 100 µM; in the experiment on HOP-62 NSCLC, above 10 µM; with HCC-2998 colon, above 100 µM; in the experiment with UACC-257 melanoma, above 100 µM; with A498 renal, above 100 µM; in the experiment on K-562 leukemia, above 100 µM.
`CSc1nc2c(nc(N)n2C2OCC(O)C(O)C2O)c(=O)[nH]1` (centres undefined): the TGI in the experiment on LOX IMVI melanoma, in the experiment with HOP-62 NSCLC, in the experiment with HCC-2998 colon, in the experiment with EKVX NSCLC, with RXF 393 renal and with UACC-257 melanoma was above 100 µM in each case. In addition, the TGI in the experiment on A498 renal and in the experiment on K-562 leukemia was above 100 µM throughout.
`CC(C)C(/C=C/c1ccccc1)=N\NC(=O)N/N=C(/C=C/c1ccccc1)C(C)C`: the TGI was above 100 µM in the experiment with LOX IMVI melanoma; above 100 µM in the experiment with HOP-62 NSCLC; above 100 µM in the experiment on HCC-2998 colon; 45.8 µM with EKVX NSCLC; above 100 µM in the experiment on UACC-257 melanoma; above 100 µM in the experiment on K-562 leukemia.
`CCC[CH2][Sn]1([CH2]CCC)[O]C(=O)C[S]1`: the GI50 in the experiment on LOX IMVI melanoma is 1.46 µM; in the experiment on HOP-62 NSCLC, 6.86 µM; in the experiment with HCC-2998 colon it was 1.83 µM; with EKVX NSCLC, 2.46 µM; in the experiment on RXF 393 renal it was 0.573 µM; with UACC-257 melanoma, 1.4 µM. Moreover, the concentration for 50% growth inhibition (GI50) with K-562 leukemia is 0.405 µM. For the same molecule, the concentration for total growth inhibition (TGI) with LOX IMVI melanoma was determined as 3.09 µM; in the experiment on HOP-62 NSCLC, 18 µM; in the experiment with HCC-2998 colon, 3.97 µM; in the experiment on EKVX NSCLC, 6.53 µM; in the experiment with RXF 393 renal, 1.88 µM; in the experiment with UACC-257 melanoma it was 3.27 µM. The TGI in the experiment with K-562 leukemia stood at 3.59 µM.
Take `CC1(C)CCc2cc3c(cc2O1)OC(C)(C)C1c2c(ccc4c2CCC(C)(C)O4)OC31` (centres undefined): the TGI in the experiment on LOX IMVI melanoma, with HOP-62 NSCLC, in the experiment on EKVX NSCLC and with K-562 leukemia was above 100 µM in each case.
Take `O=C1c2cnccc2Cc2cccc3c2N1c1ccccc1S3`: the TGI was 57.5 µM in the experiment with LOX IMVI melanoma; 57.2 µM with HOP-62 NSCLC; 41 µM with HCC-2998 colon; 65.3 µM in the experiment with RXF 393 renal; 59 µM in the experiment on UACC-257 melanoma; 69.8 µM in the experiment on A498 renal. The molecule further yielded a TGI with K-562 leukemia above 100 µM.
Take `CCOC(=O)CNC(SC)=C(C#N)C#N`: the TGI in the experiment with LOX IMVI melanoma, with HOP-62 NSCLC, in the experiment on HCC-2998 colon, in the experiment on EKVX NSCLC, in the experiment on RXF 393 renal and in the experiment with UACC-257 melanoma was above 100 µM each time. Further, the TGI in the experiment on A498 renal and in the experiment on K-562 leukemia was above 100 µM throughout.
`COc1cc2c(c3oc(-c4ccc5c(c4)OCO5)c(O)c(=O)c13)CCC(C)(C)O2`: the total growth inhibition concentration (TGI) in the experiment with LOX IMVI melanoma, in the experiment on HCC-2998 colon, in the experiment with EKVX NSCLC, in the experiment with A498 renal and in the experiment on K-562 leukemia was above 100 µM throughout.
In the case of `C#CCOCn1cnc2ncnc(Cl)c21`, the TGI with LOX IMVI melanoma, in the experiment on HOP-62 NSCLC, in the experiment with HCC-2998 colon, with EKVX NSCLC, with UACC-257 melanoma and with A498 renal was above 100 µM throughout. In the experiment with K-562 leukemia, this molecule registered a TGI above 100 µM.
Consider `CCN(CC)C(=O)c1c(N2CCOCC2)cc(N(CC)CC)oc1=O`, for which the concentration for total growth inhibition (TGI) in the experiment with LOX IMVI melanoma, with HOP-62 NSCLC, in the experiment on HCC-2998 colon, with EKVX NSCLC, with RXF 393 renal and with UACC-257 melanoma was above 100 µM in each case. The TGI with A498 renal and with K-562 leukemia was above 100 µM throughout.

For orientation: TGI means the concentration giving total growth inhibition. Read a low TGI as greater sensitivity of the cells. For orientation: GI50 means the concentration that inhibits growth by half.
